# Legend:
# PARP2 [1] = target: T1, PARP2 (Homo sapiens, UniProt Q9UGN5); assay: PARP2-DNA trapping, fluorescence polarization (FP); assay type: biochemical
# T1 construct: purchased BPS 80502
# DLD-1 BRCA2^-/- cells = assay: Apoptosis in BRCA2-deficient DLD-1 cells (Annexin V/PI flow cytometry); assay type: cell-based, human; conditions: 7 days, different concentrations, three experiments, FIG. 4
# Method: The mechanism of the anti-proliferative effect of the compounds on BRCA-mutated tumours was analysed, and the impact of the compounds on apoptosis in the BRCA2-mutated cell line was analysed by flow cytometry. BRCA2-deficient human colon cancer DLD-1 cells ([…]) were adherently cultured, with the culture conditions of RPMI1640 medium supplemented with 1% foetal bovine serum and 100 µg/mL hygromycin B. Once entering the logarithmic growth phase, the cells were collected and placed in a 6-well plate with 600,000 cells per well. The cells were allowed to adhere to the plate in a 37°C/5% CO2 incubator overnight. Different concentrations of compounds were added to each well and incubated in the incubator. After 7 days, the cells were collected and placed in a 96-well plate. 195 µL of Annexin V-FITC binding buffer was added to each well to resuspend the cells. Then 5 µL of Annexin V-FITC (beyotime, C1052) was added and gently mixed. […] The data acquired from the flow cytometer were analysed using FlowJo software.
# For apoptosis analysis, the apoptosis samples were dragged into FlowJo, the raw data were double-clicked to open the graph window, and FSC-A was selected for the X-axis and SSC-A for the Y-axis. […] The "analysed cell population" was double-clicked in the SSC/FSC plot. […]
# MDA-MB-436 = assay: Anti-proliferative activity (CellTiter-Glo, 7 days), MDA-MB-436; assay type: cell-based, human
# PARP1 = target: T2, PARP1 (Homo sapiens, UniProt P09874); assay: PARP1-DNA trapping, fluorescence polarization (FP); assay type: biochemical
# T2 construct: purchased BPS 80501
# PARP2 [2] = target: T1, PARP2; assay: DNA trapping capability of PARP2 (HTRF); assay type: biochemical
# T1 sequence (Q9UGN5 whole entry): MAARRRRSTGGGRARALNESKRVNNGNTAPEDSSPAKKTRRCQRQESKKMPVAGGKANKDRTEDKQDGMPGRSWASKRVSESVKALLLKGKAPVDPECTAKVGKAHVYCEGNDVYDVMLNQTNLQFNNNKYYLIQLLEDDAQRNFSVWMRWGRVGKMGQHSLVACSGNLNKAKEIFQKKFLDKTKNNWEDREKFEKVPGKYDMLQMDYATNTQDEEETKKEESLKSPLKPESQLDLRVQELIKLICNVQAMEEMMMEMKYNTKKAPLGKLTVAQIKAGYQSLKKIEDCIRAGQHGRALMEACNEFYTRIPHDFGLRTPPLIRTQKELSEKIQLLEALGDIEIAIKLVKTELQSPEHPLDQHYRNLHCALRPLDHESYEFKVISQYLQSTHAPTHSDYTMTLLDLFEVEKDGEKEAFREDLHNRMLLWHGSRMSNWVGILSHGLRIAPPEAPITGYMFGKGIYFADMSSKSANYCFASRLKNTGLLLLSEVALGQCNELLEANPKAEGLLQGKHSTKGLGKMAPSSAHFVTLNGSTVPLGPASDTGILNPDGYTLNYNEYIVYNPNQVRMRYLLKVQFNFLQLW
# T2 sequence (P09874 whole entry): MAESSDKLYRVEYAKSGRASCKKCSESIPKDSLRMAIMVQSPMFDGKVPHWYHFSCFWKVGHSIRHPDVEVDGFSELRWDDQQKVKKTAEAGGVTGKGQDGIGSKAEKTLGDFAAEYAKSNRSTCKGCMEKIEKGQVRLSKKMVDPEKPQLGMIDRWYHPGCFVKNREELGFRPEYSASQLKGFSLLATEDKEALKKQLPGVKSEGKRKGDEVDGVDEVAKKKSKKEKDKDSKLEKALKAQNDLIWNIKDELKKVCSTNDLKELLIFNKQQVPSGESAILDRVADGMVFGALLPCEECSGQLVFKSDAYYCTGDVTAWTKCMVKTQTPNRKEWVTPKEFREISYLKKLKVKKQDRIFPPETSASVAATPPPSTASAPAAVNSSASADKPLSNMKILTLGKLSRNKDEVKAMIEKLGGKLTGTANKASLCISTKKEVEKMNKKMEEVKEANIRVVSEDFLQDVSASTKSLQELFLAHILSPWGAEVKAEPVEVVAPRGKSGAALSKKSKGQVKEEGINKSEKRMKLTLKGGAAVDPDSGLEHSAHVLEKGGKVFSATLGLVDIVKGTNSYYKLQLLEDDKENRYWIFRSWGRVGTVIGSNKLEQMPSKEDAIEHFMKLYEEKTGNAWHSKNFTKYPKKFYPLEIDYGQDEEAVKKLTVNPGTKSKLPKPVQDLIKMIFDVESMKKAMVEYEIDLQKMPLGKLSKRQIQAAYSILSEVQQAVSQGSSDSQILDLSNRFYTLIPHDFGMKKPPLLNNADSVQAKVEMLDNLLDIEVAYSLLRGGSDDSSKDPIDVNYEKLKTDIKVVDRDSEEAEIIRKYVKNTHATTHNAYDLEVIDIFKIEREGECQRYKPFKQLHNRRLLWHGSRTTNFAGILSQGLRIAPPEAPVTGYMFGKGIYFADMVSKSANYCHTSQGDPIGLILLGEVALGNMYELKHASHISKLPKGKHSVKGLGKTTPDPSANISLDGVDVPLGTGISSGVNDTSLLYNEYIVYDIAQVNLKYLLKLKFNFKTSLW
structure (smiles),measurement,setting,value
"[2H]C([2H])([2H])NC(=O)c1ccc(N2CCN(Cc3cnc4c(N)c(CC)c(=O)[nH]c4c3)CC2)c(F)n1 [Example 4, 5-(4-((8-Amino-7-ethyl-6-oxo-5,6-dihydro-1,5-naphthyridin-3-yl)methyl)piperazin-1-yl)-6-fluoro-N-(methyl-d3)picolinamide]",Bottom,"PARP2 [1]; PARP2, 0.25 hour",4.3
same,EC50,"PARP2 [1]; PARP2, 0.25 hour",2330 nM
same,Hillslope,"PARP2 [1]; PARP2, 0.25 hour",1.4
same,Top,"PARP2 [1]; PARP2, 0.25 hour",= 100.0
same,Bottom,"PARP2 [1]; PARP2, 0.5 hour",1.0
same,EC50,"PARP2 [1]; PARP2, 0.5 hour",5470 nM
same,Hillslope,"PARP2 [1]; PARP2, 0.5 hour",1.9
same,Top,"PARP2 [1]; PARP2, 0.5 hour",= 100.0
same,Bottom,"PARP2 [1]; PARP2, 1 hour",0.8
same,EC50,"PARP2 [1]; PARP2, 1 hour",> 10000 nM
same,Hillslope,"PARP2 [1]; PARP2, 1 hour",2.1
same,Top,"PARP2 [1]; PARP2, 1 hour",= 100.0
same,EC50,"PARP2 [1]; PARP2, 2 hour",> 10000 nM
same,EC50,"PARP2 [1]; PARP2, 4 hour",> 10000 nM
same,EC50,"PARP2 [1]; PARP2, 8 hour",> 10000 nM
same,EC50,"PARP2 [1]; PARP2, 24 hour",> 10000 nM
same,EC50,"PARP2 [1]; PARP2, 48 hour",> 10000 nM
same,proportion of apoptotic cells,DLD-1 BRCA2^-/- cells,higher proportion of apoptotic cells at different concentrations than the reference compound AZD5305
same,IC50,"MDA-MB-436; Homo sapiens, MDA-MB-436, 168 h, BRCA1-mutated, 7 days, read-out: MDA-MB-436 IC50",1.93 nM
same,BRCA1 mutation/WT selectivity fold,MDA-MB-436; MDA-MB-231 vs MDA-MB-436,">5,181 fold"
same,capability to induce PARP1-DNA trapping higher than that of Olaparib,"PARP1; 2-hour time point, relative to Olaparib",48 fold
same,PARP1-DNA trapping activity stronger than that of AZD5305,"PARP1; 54-hour time point, relative to AZD5305",14 fold
same,time over which PARP1-DNA trapping activity could be maintained,"PARP1; FP, PARP1",more than 54 hours
same,Bottom,"PARP1; PARP1, 0.25 hour",-8.7
same,EC50,"PARP1; PARP1, 0.25 hour",3.11 nM
same,Hillslope,"PARP1; PARP1, 0.25 hour",2.8
same,Top,"PARP1; PARP1, 0.25 hour",108.7
same,Bottom,"PARP1; PARP1, 0.5 hour",-6.3
same,EC50,"PARP1; PARP1, 0.5 hour",2.26 nM
same,Hillslope,"PARP1; PARP1, 0.5 hour",2.9
same,Top,"PARP1; PARP1, 0.5 hour",105.6
same,Bottom,"PARP1; PARP1, 1 hour",-4.2
same,EC50,"PARP1; PARP1, 1 hour",2.58 nM
same,Hillslope,"PARP1; PARP1, 1 hour",3.1
same,Top,"PARP1; PARP1, 1 hour",109.1
same,Bottom,"PARP1; PARP1, 2 hour",-0.8
same,EC50,"PARP1; PARP1, 2 hour",2.86 nM
same,Hillslope,"PARP1; PARP1, 2 hour",3.0
same,Top,"PARP1; PARP1, 2 hour",105.3
same,Bottom,"PARP1; PARP1, 4 hour",-5.6
same,EC50,"PARP1; PARP1, 4 hour",2.99 nM
same,Hillslope,"PARP1; PARP1, 4 hour",2.4
same,Top,"PARP1; PARP1, 4 hour",106.8
same,Bottom,"PARP1; PARP1, 8 hour",-6.8
same,EC50,"PARP1; PARP1, 8 hour",3.51 nM
same,Hillslope,"PARP1; PARP1, 8 hour",2.6
same,Top,"PARP1; PARP1, 8 hour",107.2
same,Bottom,"PARP1; PARP1, 24 hour",-4.4
same,EC50,"PARP1; PARP1, 24 hour",3.97 nM
same,Hillslope,"PARP1; PARP1, 24 hour",1.5
same,Top,"PARP1; PARP1, 24 hour",79.2
same,Bottom,"PARP1; PARP1, 30 hour",-8.8
same,EC50,"PARP1; PARP1, 30 hour",5.46 nM
same,Hillslope,"PARP1; PARP1, 30 hour",1.2
same,Top,"PARP1; PARP1, 30 hour",79.1
same,Bottom,"PARP1; PARP1, 48 hour",-5.6
same,EC50,"PARP1; PARP1, 48 hour",4.58 nM
same,Hillslope,"PARP1; PARP1, 48 hour",2.0
same,Top,"PARP1; PARP1, 48 hour",51.0
same,Bottom,"PARP1; PARP1, 54 hour",-12.8
same,EC50,"PARP1; PARP1, 54 hour",9.54 nM
same,Hillslope,"PARP1; PARP1, 54 hour",0.8
same,Top,"PARP1; PARP1, 54 hour",55.9
same,EC50,PARP2 [2],382 nM

# Source: patent EP4620956A1, “PARP1 INHIBITORS” (Zhejiang Yangli Pharmaceutical Technology Co., Ltd., priority 2022, dated 2024)
